Measurements: patent US12491188B2, “Small molecule PARG inhibitors and methods of use thereof” (Board of Regents, The University of Texas System, priority 2019, dated 2025)
pIC50: −log10 of the molar value.

Columns and labels:
[1] = system: MDA-MB-231 control and PARG-KD cells; test: Sulforhodamine B (SRB) cytotoxicity, control vs PARG-KD cells; format: cell-based, human; conditions: 72 h
From the text: Sulforhodamine B (SRB) Cytotoxicity Assay.

human PARG = human PARG (Homo sapiens (Human), UniProt Q86W56); test: Gel-based PARG activity assay; format: biochemical
Protocol: FIGS. 9a & 9b show structure-activity relationships (SAR) of compounds from five main chemotypes. (FIG. 9a) A total of 34 representative HTS hits and commercially available analogues from each chemotype (FIG. 7 and FIG. 29) were analyzed using the gel-based PARG activity assay. This gel-based assay directly monitors the change of PARylation status of PARP1 as a substrate of PARG. […] The reaction was quenched after a 30 min incubation at room temperature by adding SDS-PAGE sample buffer. PARylated PARP1C runs as a smear on SDS-PAGE that is reduced to a single band by PARG treatment. […] (FIG. 9b) Quantification of the dose-response PARG inhibition by JA2-3 using the gel-based PARG activity assay. hPARG (1 nM) was preincubated with increasing concentrations (0.032-1 μM) of JA2-3 for 1 hr at room temperature before PARylated PARP1C (500 nM) was added. The reaction was quenched after a 30 min incubation at room temperature. PARylated PARP1C migrates slower than unmodified PARP1C and was quantified using ImageJ. To determine the IC50 value, the dose-response data were plotted as a function of JA2-3 concentration and fitted to the four-parameter logistic equation using SigmaPlot. The rate of the PARG-dependent signal loss in the TR-FRET PAR turnover assay is not equivalent to the steady-state rate of PAR turnover, because the TR-FRET assay can't detect signal loss until the length of PAR chains become shorter than 7 ADP-ribose units. Therefore, the gel-based PARG activity assay to accurately determine the IC50 values throughout the present disclosure.
Gel-based PARG activity assay. PARP1C (2 μM) is enzymatically auto-modified in a reaction containing the PARP1 DBD (2 μM), a 24 mer nicked DNA oligo (2 μM), and NAD+(300 μM) for 1 hr at 37° C., as described previously (Kim et al., 2012). Human PARG^389-976 (1 nM) was pre-incubated with compounds for 1 hr at room temperature. The reaction was initiated by addition of PARylated PARP1 (final concentration of 500 nM) and quenched after 30 min incubation at room temperature by adding SDS-PAGE sample buffer. The gel was visualized by sypro-ruby staining (Kim et al., 2012) and the retained PARylated PARP1C species were quantified using ImageJ (Schneider et al., 2012).
PARylated PARP1C that migrates slower than unmodified PARP1C was quantified. […] The IC50 values were determined by fitting the dose-response data for each compound to a four-parameter logistic equation using SigmaPlot (Systat Software Inc.).
To test specificity of JA2131, human PARG^389-976 (1 nM) was pre-incubated with JA2131 (5, 10, and 20 μM) in the presence and absence of 0.1% Triton-X 100 or 0.1 mg/ml BSA for 1 hr at room temperature. The reaction was initiated, quenched, visualized, and quantified as described above.

HeLa cells = test: DNA fiber assay, replication fork progression; format: cell-based; conditions: 10 μM, 2 hrs pretreatment
Protocol: DNA fiber assay. DNA fiber assay was conducted as described previously (Castillo et al. 2014). Briefly, cells pretreated with JA2131 (10 μM) or DMSO for 2 hrs were labeled with 100 μM CldU for 30 min and exposed to 250 μM IdU (with or without 0.4 mM hydroxyurea treatment) for another 30 min or 3 hrs. After labeling and treatment, cells were lysed and DNA fibers stretched onto glass slides. Immunofluorescence was carried out using α-IdU/α-BrdU (BD Biosciences) and α-CldU/α-BrdU (Abcam) and secondary antibodies, including Alexa Fluor 488 (green) and Alexa Fluor 555 (Invitrogen). Images were taken using a Nikon 80 microscope and analyzed using ImageJ software. Statistics were calculated using Prism software. 5-Chloro-2′-deoxyuridine (CIdU) and 5-Iodo-2′-deoxyuridine (IdU) were from Sigma.

PARP1 = PARP1 (Homo sapiens (Human), UniProt P09874); test: In vitro PARP1 auto-PARylation
MRC-5 cells = conditions: SRB
Protocol: Sulforhodamine B (SRB) Cytotoxicity Assay. […] Colorimetric or fluorescence analysis was performed in a FlexStation 3, using SoftMax Pro 7.0, Molecular Devices. Normalized graphs were generated with Prism 8 software, non-linear 4-parameter data fitting was performed for IC50 calculation.

Chain of human PARG (Q86W56 389-976): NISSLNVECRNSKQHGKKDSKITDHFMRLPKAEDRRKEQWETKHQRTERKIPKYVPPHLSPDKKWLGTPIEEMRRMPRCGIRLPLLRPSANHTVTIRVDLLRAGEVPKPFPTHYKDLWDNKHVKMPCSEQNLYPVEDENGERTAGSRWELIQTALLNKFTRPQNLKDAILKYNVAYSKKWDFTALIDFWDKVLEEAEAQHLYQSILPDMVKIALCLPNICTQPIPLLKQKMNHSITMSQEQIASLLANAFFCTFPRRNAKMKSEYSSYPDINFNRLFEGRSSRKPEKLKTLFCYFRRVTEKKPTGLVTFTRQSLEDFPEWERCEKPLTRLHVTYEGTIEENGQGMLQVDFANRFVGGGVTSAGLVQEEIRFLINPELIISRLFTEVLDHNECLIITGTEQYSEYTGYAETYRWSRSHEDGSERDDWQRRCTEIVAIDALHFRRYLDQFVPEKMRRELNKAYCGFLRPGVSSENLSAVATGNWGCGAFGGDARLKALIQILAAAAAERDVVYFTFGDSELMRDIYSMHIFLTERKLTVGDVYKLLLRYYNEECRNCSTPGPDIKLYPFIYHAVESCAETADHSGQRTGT
Chain of PARP1 (P09874 whole entry): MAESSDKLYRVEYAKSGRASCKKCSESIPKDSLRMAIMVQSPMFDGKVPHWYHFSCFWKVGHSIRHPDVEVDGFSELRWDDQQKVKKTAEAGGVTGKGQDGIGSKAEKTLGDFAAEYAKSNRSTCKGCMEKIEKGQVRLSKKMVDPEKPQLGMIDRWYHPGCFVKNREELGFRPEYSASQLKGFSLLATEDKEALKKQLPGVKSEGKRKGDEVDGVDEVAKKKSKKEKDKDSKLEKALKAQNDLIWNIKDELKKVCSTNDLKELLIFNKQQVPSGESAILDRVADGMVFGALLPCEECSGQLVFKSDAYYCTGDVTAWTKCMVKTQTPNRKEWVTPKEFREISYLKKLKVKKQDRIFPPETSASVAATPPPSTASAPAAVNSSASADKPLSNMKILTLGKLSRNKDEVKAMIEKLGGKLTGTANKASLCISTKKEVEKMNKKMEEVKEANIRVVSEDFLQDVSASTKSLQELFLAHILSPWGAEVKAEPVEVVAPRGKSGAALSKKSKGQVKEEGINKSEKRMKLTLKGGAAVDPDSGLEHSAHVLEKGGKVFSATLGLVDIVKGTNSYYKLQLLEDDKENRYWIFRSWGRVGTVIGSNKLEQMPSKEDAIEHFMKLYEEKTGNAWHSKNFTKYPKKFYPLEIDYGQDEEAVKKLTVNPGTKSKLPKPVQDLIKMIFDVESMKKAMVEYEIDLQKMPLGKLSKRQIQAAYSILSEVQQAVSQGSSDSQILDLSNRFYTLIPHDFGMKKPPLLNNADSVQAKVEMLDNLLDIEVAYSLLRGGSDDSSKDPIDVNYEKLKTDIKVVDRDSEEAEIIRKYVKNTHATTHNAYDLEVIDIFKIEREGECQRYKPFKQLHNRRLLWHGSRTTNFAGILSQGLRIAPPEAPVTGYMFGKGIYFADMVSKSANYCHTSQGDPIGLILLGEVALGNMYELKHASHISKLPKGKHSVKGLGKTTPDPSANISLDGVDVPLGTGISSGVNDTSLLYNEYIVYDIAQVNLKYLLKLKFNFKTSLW

O=C1C(Cl)=C(Cl)C(Cl)(Cl)C(Cl)=C1Cl [JA2131]
IC50 value for PARG-depleted cells compared to control cells [1]: ~10 fold | PARG-KD cells that responded to the PARGi [1]: 50% | effect of detergent or non-specific protein on PARG inhibitory potency (human PARG; 0.1% Triton-X 100 or 0.1 mg/ml BSA, JA2131 5, 10, 20 μM): Neither the addition of Triton-X 100 nor BSA significantly altered the inhibitory potency | IC50 of PARG inhibition (human PARG; hPARG 1 nM, PARylated PARP1C 500 nM): sub-micromolar | pIC50 (human PARG; hPARG 1 nM, PARylated PARP1C 500 nM, read-out: IC50 of PARG inhibition): 6.40 | increase in potency of JA2131 (6′-thiocarbonyl) in comparison to JA2120 (6′-carbonyl) (human PARG; ratio of IC50 values): more than 50 fold | average IdU tract (HeLa cells; absence of genotoxic stress): 6.0 μm | average IdU tract length (HeLa cells; low dose of hydroxyurea): 5.0 μm | concentration up to which PARP1 activation was not inhibited (PARP1; in vitro PARP1 auto PARylation): > 100 µM | effect on PARP1 auto-PARylation / PAR synthesis by PARP1 (PARP1; increasing concentration of compound): no effect | cytotoxic dose in MRC-5 cells relative to MDA-MB-231 cells (MRC-5 cells): an order of magnitude higher
